In ChEMBL document CHEMBL6121057, “Discovery of an Orally Bioavailable STING Inhibitor with In Vivo Anti-Inflammatory Activity in Mice with STING-Mediated Inflammation” (J Med Chem, 2025):

Key:
[1] = Metabolic stability in human liver microsomes assessed as half life; format: ADME, Microsome
[2] = Metabolic stability in human liver microsomes assessed as intrinsic clearance; format: ADME, Microsome; settings: read-out: CLH
[3] = Half life in Sprague-Dawley rat at 2 mg/kg, iv measured upto 60 mins by LC-MS/MS analysis; format: ADME, organism-based; settings: in vivo
[4] = Tmax in Sprague-Dawley rat at 2 mg/kg, iv measured […] by LC-MS/MS analysis; format: ADME, organism-based; settings: in vivo
[5] = Cmax in Sprague-Dawley rat at 2 mg/kg, iv measured […] by LC-MS/MS analysis; format: ADME, organism-based; settings: in vivo
[6] = AUC (0 to t) in Sprague-Dawley rat at 2 mg/kg, iv measured upto 60 mins by LC-MS/MS analysis; format: ADME, organism-based; settings: in vivo
[7] = Tmax in Sprague-Dawley rat at 10 mg/kg, po measured […] by LC-MS/MS analysis; format: ADME, organism-based; settings: in vivo
[8] = Cmax in Sprague-Dawley rat at 10 mg/kg, po measured […] by LC-MS/MS analysis; format: ADME, organism-based; settings: in vivo
[9] = AUC (0 to t) in Sprague-Dawley rat at 10 mg/kg, po measured upto 60 mins by LC-MS/MS analysis; format: ADME, organism-based; settings: in vivo
[10] = Oral bioavailability in Sprague-Dawley rat at 10 mg/kg measured […] by LC-MS/MS analysis; format: ADME, organism-based; settings: in vivo

## CCc1ccc(NC(=O)Nc2c[nH]c3ccccc23)cc1
[1]
  half-life: 6.2 min
[2]
  CLint scaled: 143 mL/min/kg
[3]
  half-life: 12 min
[4]
  Tmax: 6 min
[5]
  Cmax: 1320 ng/mL
[6]
  AUC(0-t) at 1 h: 387 ng·h/mL
[7]
  Tmax: 48 min
[8]
  Cmax: 8 ng/mL
[9]
  AUC(0-t) at 1 h: 12 ng·h/mL
[10]
  bioavailability: 0.6%
